Earlier results in patent publication US20260315500A1, “SOLID CANNABINOID COMPOSITION FOR PARENTERAL USE” (Bender Analytical Holding B.V., priority 2023, published 2026).
Converted amounts (≈) assume the structure as drawn.

What was measured:
neuronal and glial cells = settings: preclinical; functional, neuroimaging, histologic and biochemical studies
[1] = 23° C.

Row | Structure (SMILES) | neuroprotective effects (neuronal and glial cells) | water solubility [1] [µg/mL]
1 | C=C(C)[C@@H]1CCC(C)=C[C@H]1c1c(O)cc(CCCCC)cc1O [Cannabidiol] | protects neuronal and glial cells, with a remarkable effect on preserving normal myelinogenesis | 
2 | CCCCCc1cc(O)c2c(c1)OC(C)(C)[C@@H]1CCC(C)=C[C@@H]21 [Tetrahydrocannabinol (THC), Tetrahydrocannabinol] |  | 2.8 (≈ 8.9 µM)
